In a compilation of properties of binary mixtures (doi:10.1007/s10953-008-9260-8):

Test: xn = mol fraction of the nth substance listed
Details: 101 kPa

CCCC[n+]1ccn(C)c1.F[P-](F)(F)(F)(F)F + CCCC[n+]1ccn(C)c1.F[B-](F)(F)F
viscosity [mPa·s]
Details | 298.15 K | 299.15 K | 301.15 K | 302.15 K | 303.15 K | 304.15 K | 305.15 K | 307.15 K | 308.15 K
x1 = 0.0568 | 106.8 | 101.3 | – | – | – | 79 | 75.3 | 68.5 | 65.39
x1 = 0.1034 | – | – | – | 94.4 | 89.7 | 85.5 | 81.4 | 74.3 | 70.9
x1 = 0.2095 | 128.1 | – | 109.5 | 103.9 | 98.8 | 94.2 | 89.5 | 81.3 | –
x1 = 0.3012 | 137.4 | 130.1 | 117 | 111.1 | 105.4 | 100.2 | 95.3 | 86.4 | 82.4
x1 = 0.3825 | 146.7 | 139.9 | 125.6 | – | 113 | 107.1 | 102.1 | – | –
x1 = 0.4647 | 157.7 | 145.6 | 131.8 | – | 118.1 | 111.8 | 106.9 | 96.4 | 91.9
x1 = 0.4999 | 169.3 | 159.7 | – | 135.8 | 128.2 | – | – | 103.9 | 98.4
x1 = 0.5385 | 168.5 | 159.6 | 142.9 | 134.8 | – | 121.6 | 114.9 | 104.1 | –
x1 = 0.5974 | 182.5 | 172.4 | 156.7 | 145.4 | 137.6 | 130.5 | 123.9 | 111.8 | 106
x1 = 0.6928 | 201.4 | 190.1 | 169.9 | 160.9 | 155.3 | 144.1 | – | 123.3 | 116.9
x1 = 0.833 | – | 214 | 190.2 | 179.5 | 169.7 | 160.5 | 154.5 | – | 129.2
x1 = 0.8877 | – | 224 | 199 | 187.7 | 177.3 | 167.5 | 159 | 142.2 | 134.8
x1 = 0.945 | 249 | 234 | 208 | 196.2 | 185.4 | 175.3 | – | – | 142.5
x1 = 1 | 279 | – | – | 218 | 206 | 194.8 | 183.8 | 164.5 | –
